Test results: US12139488B2, “Pyrido[3,2-d]pyrimidine compounds uses thereof for treating a proliferative disease” (Universite de Montreal, priority 2021, dated 2024)

What was measured:
[1] = biological target: ARAF (Homo sapiens (Human), UniProt P10398); test: ARAF kinase activity assay (AlphaLISA p-MEK 1/2 detection); assay type: biochemical
Protocol: Compound preparation: solid samples of each substances in 1 dram vials were suspended in DMSO (Fisher Scientific) at a stock concentration of 20 mM. Stocks were kept at −20° C. and protected from light. If solubility of the compound at 20 mM appeared to be an issue, the initial concentration of the DMSO stock was changed to 10 mM or 5 mM.
In vitro enzymatic reactions were used for evaluating compounds intrinsic activity against BRAF, CRAF and ARAF. For BRAF and CRAF, 0.375 nM of purified GST-tagged kinases (cat #B4062-10 UG and cat #R1656-10 UG respectively from Millipore Sigma) were incubated with 75 nM of kinase-dead MEK1 substrate (cat #40075; BPS Bioscience) in the presence of 10 μM of Ultrapure ATP (cat #V9102; Promega; part V915A) with and without the test compound in a buffer containing 50 mM HEPES pH 7.5, 10 mM MgCl2, 1 mM EDTA, 0.01% Brij-35 and 2 mM DTT. Separate reactions were performed with the MEK1 substrate and ATP as a blank control. ARAF, kinase reactions were rigorously the same with the exception that kinase concentration was raised to 3.75 nM (cat #1768-0000-1; Reaction Biology).
For compound treatment, 5 μL/well of test substance solution are placed in a 384-well proxyplate (Perkin Elmer) and mixed with 2× concentrated kinase reactions. The dilution series is selected so that nine concentrations cover a range from 100 nM to 0.01 nM. […] The final concentration of DMSO in the assay is set at 0.05%.
ARAF kinase reactions were carried out for a total of 2 hours at 30° C. and then stopped by addition of EDTA at a final concentration of 40 mM. Reactions were then detected using the AlphaLISA® SureFire® Ultra™ p-MEK 1/2 (Ser218/222) (PerkinElmer) kit. Reactions were performed with 5 μL of kinase reaction according to the manufacturer's specifications in 384-well proxyplates (Perkin Elmer) followed by overnight incubation of the AlphaLISA® reactions at room temperature in a humidified chamber. After completion of the detection reactions, the signals were recorded on a Synergy Neo2 plate reader (Biotek) equipped with AlphaLISA® filters. The effect of each compound dilution on the pMEK signal generated by ARAF reactions was expressed in % inhibition and calculated as follows. An internal 100% inhibition control (average of luminescence in kinase reactions comprising kinase dead MEK1 substrate alone) was included in each plate to measure of pMEK background and was subtracted from each data point. The average of DMSO (vehicle) controls (set as 0% inhibition) was also established and used to calculate % inhibition: % inhibition=100*(1−((pMEK signalcompound)/(pMEK signalDMSO)))
IC50 values were obtained by plotting the kinase inhibition values and fitting the dose-activity curves using a log(agonist) versus response-variable slope (four parameters) function using either GraphPadPrism (V7.0) or Dotmatics Screening Ultra platform. Standards included in the ARAF kinase assay were Belvarafenib (MedChem Express cat #HY-109080; CAS #1446113-23-0), LXH254 (MedChem Express cat #HY-112089; CAS #1800398-38-2) and BGB283 (cat #HY-18957; CAS #1446090-79-4).

[2] = system: pERK in HCT-116 cells (KRAS G13D); test: Phospho-ERK inhibition (AlphaLISA SureFire Ultra p-ERK 1/2), HCT116; assay type: cell-based, human
In short: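 pERK1/2 (Thr202/Tyr204) AlphaLISA, 1 h cpd, 10 conc. 10 μM→0.33 nM, 0.5% DMSO, RPMI-1640 + 5% FBS. Trametinib = 100%, DMSO = 0%. IC50, 4-param fit.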

[3] = system: pERK and pMEK in RAS-mutant HCT-116 cells; test: Immunoblot analysis of pERK and pMEK in HCT-116 cells; assay type: cell-based, human; conditions: 1 h treatment, FIG. 2
Protocol: For immunoblotting analysis, 500,000 HCT-116 cells were plated in 1 mL of complete RPMI-1640 growth medium in 24-well flat-bottomed transparent dishes (Costar). Cells were maintained overnight at 37° C. under 5% CO2 before treatment with compounds' dilution series for one hour.
Cells were then washed once in PBS and lized in 250 μL of Igepal Lysis Buffer (50 mM Tris-HCl pH 7.5, 150 mM NaCl, 1% Igepal-CA630, 1 mM EDTA, 10% Glycerol) supplemented with Leupeptin, Aprotinin, PMSF, phosphatase inhibitor cocktail (Sigma) and Na3VO4 at 4° C. for 15 minutes with gentle rocking. Cell extracts were then cleared by centrifugation at 20,000 g at 4° C. for 10 minutes. Cleared lysates were then transferred on ice in fresh tubes and then boiled in sample loading buffer (100 mM Tris-HCl pH 6.8, 4% SDS, 0.2% bromophenol blue, 20% glycerol, 200 mM p-mercaptoethanol) for 5 minutes prior to fractionation by SDS-PAGE and transfer to nitrocellulose membranes (PALL). […]

Sequence of ARAF (P10398 whole entry): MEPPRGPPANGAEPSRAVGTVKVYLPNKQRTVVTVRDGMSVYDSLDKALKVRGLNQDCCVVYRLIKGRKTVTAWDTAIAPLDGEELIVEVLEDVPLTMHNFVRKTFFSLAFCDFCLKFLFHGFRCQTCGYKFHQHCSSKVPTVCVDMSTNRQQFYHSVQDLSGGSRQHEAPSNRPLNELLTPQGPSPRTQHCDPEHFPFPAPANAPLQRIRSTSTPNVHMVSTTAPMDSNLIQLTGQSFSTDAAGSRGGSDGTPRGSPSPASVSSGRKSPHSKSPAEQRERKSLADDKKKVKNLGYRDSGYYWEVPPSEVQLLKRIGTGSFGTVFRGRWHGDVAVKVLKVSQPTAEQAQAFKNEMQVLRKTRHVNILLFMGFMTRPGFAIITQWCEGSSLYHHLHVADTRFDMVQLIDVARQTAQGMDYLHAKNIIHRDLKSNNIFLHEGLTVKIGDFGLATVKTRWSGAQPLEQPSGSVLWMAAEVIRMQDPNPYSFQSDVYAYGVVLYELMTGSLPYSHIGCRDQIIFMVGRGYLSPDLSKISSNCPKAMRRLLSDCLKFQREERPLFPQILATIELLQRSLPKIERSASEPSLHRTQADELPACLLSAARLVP

Structure (SMILES)	IC50 [1] [nM]	IC50 ([2]; HCT116 cells, class symbol) [nM]	paradoxical induction of pERK or pMEK signaling (immunoblot) [3]	YMIN of pERK IC50 dose response curve (paradoxical induction of pERK signaling) ([2]; RAS-mutant HCT116 cells, FIG. 1) [%]
O=C1CCc2c(Oc3ccc4c(c3)[C@@H]3[C@H](O4)[C@H]3c3nc4ccc(C(F)(F)F)cc4[nH]3)ccnc2N1 [BGB283, reference compound]	> 10			
Cc1nc(N)ccc1S(=O)(=O)Nc1ccc(F)c(Nc2ncnc3ccc(-n4cnc5c(N)cccc54)nc23)c1F [Example 353]	1 to 10	1000 to 10000		
Cc1ccc(NC(=O)c2ccnc(C(F)(F)F)c2)cc1-c1cc(OCCO)nc(N2CCOCC2)c1 [LXH254, reference compound]	> 10			
CCCS(=O)(=O)Nc1ccc(F)c(C(=O)c2c[nH]c3ncc(Cl)cc23)c1F [PLX4720, reference compound]			induces the pathway	~−600
